Experimental findings from US20210403485A1, “PYRAZOLOPYRIMIDINE DERIVATIVE AS SELECTIVE TRK INHIBITOR” (SHANDONG LUYE PHARMACEUTICAL CO., LTD., priority 2018, published 2021) are described below.

What all share (test): Kinase inhibitory activity (33P-ATP, filtration-binding method, Reaction Biology Corp.)
What all share (format): biochemical

For one assay, the target named is T1, TrkC (Homo sapiens, UniProt Q16288).
T1 construct: purchased Reaction Biology Corp
The method in brief:
(§1)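 Radiometric kinase assay: enzyme-compound mixture preincubated 20 minutes at room temperature, then reaction started with ^33P-ATP and run 120 minutes at room temperature. Filtration-binding readout. Activity expressed relative to DMSO control; IC50 from fitted dose-response curves.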

A further assay concerns the target T2, Ros1 (Homo sapiens, UniProt P08922).
T2 construct: purchased Reaction Biology Corp
The method in brief: as §1

A further assay concerns the target T3, TrkA-G667C (Homo sapiens, UniProt P04629, G667C).
T3 construct: purchased Reaction Biology Corp
The method in brief: as §1

The target of a further assay is T4, TrkA (Homo sapiens, UniProt P04629).
T4 construct: purchased Reaction Biology Corp
The method in brief: as §1

Another assay addresses T5, TrkA-G595R (Homo sapiens, UniProt P04629, G595R).
T5 construct: purchased Reaction Biology Corp
The procedure, abridged:
as §1

T4 sequence (P04629 33-796): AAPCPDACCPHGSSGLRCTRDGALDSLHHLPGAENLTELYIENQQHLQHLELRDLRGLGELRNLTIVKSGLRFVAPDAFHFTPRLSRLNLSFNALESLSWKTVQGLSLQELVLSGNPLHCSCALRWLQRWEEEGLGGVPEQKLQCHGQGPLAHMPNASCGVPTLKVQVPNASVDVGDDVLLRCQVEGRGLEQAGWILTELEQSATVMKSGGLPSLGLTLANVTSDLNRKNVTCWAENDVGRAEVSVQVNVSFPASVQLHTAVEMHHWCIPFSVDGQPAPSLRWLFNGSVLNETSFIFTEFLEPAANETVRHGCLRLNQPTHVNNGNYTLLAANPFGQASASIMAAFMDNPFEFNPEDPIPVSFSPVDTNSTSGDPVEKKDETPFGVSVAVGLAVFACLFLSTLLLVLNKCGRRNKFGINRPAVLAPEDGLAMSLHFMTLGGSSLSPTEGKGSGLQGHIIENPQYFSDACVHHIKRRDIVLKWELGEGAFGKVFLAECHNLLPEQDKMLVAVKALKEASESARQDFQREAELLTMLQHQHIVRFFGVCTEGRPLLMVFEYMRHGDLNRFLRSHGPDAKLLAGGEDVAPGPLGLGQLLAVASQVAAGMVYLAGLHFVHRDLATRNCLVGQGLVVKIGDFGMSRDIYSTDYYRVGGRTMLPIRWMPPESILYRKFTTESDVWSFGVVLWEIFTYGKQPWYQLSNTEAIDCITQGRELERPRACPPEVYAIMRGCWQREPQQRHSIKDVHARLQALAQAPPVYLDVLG
T1 sequence (Q16288 32-839): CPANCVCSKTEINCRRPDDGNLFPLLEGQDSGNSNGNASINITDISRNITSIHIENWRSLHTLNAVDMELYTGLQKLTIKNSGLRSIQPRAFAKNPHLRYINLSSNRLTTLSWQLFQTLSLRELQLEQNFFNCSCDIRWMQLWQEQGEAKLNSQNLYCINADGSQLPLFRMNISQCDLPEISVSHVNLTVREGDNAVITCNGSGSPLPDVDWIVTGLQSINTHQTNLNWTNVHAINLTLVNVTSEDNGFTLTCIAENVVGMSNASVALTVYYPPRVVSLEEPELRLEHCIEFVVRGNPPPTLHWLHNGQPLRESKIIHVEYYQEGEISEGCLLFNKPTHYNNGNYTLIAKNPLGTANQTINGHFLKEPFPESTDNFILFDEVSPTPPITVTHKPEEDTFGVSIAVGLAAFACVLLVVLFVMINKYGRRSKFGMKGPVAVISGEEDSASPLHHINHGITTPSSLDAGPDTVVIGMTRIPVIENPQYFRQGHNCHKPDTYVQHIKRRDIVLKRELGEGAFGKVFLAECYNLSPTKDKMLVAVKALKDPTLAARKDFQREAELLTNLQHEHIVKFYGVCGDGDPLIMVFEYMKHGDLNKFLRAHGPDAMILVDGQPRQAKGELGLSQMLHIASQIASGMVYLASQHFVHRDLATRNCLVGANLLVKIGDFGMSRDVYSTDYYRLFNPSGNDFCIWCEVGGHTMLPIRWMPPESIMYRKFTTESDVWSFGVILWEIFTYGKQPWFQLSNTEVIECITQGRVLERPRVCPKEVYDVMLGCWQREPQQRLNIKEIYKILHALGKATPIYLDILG
T3 sequence (P04629 33-796 G667C): as the sequence (P04629 33-796) above, with G635C counted along it
T2 sequence (P08922 28-2347): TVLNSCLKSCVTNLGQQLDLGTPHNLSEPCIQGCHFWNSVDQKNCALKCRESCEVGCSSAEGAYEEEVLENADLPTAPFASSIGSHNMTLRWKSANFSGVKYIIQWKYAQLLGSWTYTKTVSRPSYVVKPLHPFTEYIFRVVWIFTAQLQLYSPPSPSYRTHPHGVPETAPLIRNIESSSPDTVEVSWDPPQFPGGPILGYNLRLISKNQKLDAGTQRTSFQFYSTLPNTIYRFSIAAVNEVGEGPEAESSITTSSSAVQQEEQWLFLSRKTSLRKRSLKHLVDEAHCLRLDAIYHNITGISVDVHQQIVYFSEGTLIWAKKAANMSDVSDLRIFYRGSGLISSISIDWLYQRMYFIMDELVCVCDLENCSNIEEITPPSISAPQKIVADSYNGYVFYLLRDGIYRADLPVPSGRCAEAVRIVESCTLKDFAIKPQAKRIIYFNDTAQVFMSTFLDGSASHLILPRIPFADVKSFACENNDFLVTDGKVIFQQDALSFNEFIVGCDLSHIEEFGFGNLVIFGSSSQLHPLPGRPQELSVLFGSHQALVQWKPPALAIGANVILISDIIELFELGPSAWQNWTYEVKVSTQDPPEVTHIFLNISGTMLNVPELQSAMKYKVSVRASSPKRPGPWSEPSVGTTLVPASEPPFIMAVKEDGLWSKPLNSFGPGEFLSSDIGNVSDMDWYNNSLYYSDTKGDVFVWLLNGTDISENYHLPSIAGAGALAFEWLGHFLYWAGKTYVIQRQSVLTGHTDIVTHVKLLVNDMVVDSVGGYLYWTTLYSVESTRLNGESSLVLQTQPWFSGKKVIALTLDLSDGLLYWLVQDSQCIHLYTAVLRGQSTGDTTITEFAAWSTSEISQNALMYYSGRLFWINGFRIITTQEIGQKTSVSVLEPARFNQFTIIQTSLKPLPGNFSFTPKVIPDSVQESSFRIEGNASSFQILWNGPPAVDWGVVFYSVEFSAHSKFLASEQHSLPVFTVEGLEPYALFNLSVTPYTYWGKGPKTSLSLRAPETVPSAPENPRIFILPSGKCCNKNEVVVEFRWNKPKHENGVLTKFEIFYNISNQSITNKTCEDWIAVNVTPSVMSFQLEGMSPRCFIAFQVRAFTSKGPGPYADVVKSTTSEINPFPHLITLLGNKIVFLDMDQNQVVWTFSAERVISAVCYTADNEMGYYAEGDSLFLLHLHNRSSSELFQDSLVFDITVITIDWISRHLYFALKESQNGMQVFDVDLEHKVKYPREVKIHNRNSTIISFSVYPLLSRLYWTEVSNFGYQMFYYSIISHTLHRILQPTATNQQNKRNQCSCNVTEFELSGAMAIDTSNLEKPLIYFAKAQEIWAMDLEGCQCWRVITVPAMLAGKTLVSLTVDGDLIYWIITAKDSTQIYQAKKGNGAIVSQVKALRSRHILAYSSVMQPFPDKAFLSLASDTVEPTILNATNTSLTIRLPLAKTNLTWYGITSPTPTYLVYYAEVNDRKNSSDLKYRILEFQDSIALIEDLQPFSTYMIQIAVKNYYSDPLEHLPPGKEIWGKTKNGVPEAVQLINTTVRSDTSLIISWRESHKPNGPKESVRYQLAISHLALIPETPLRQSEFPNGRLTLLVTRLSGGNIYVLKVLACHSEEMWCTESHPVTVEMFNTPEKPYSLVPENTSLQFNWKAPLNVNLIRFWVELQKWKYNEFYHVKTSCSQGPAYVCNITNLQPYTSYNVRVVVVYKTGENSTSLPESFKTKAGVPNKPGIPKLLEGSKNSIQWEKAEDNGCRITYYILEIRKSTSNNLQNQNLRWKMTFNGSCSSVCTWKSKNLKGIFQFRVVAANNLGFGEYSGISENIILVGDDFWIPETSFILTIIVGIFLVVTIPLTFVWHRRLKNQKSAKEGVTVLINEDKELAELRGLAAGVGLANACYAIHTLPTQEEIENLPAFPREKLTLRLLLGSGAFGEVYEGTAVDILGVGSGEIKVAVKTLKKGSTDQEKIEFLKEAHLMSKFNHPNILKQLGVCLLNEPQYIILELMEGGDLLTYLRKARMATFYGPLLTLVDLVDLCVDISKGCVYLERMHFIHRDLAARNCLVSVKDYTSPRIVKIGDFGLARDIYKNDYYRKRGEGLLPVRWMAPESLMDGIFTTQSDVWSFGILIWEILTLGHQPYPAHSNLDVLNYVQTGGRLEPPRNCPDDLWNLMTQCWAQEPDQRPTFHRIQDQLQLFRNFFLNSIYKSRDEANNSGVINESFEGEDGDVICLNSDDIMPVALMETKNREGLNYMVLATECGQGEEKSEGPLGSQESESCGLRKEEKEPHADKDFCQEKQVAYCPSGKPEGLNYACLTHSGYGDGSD
T5 sequence (P04629 33-796 G595R): as the sequence (P04629 33-796) above, with G563R counted along it

In the case of `O=C1NC2(CC2)COc2ncc(F)cc2C2COCCN2c2ccn3ncc1c3n2` (single isomer, unassigned) [WX001B], the IC50 on TrkC is 0.2 nM; on Ros1, 1 nM; on TrkA-G667C, 2.3 nM; on TrkA, 2.4 nM; on TrkA-G595R it was 3.5 nM.
